The source made the active and inactive calls. The calls are words filed in the database; no cut-off is given here. A value given as a limit tells only on which side of the number the result lay.

This note sets out measurements from ChEMBL document CHEMBL5096221, “Discovery of a Highly Potent and Orally Bioavailable STAT3 Dual Phosphorylation Inhibitor for Pancreatic Cancer Treatment” (J Med Chem, 2022).

Data set [1] in a line: Oral bioavailability in BALB/c mouse at 10 mg/kg,po measured upto 24 hrs by LC-MS/MS analysis. Type of data set: ADME, organism-based. The note with it: in vivo.
The target in data set [2] is Signal transducer and activator of transcription 3 (Homo sapiens, UniProt P40763). Kind of data set: Thermal stabilization of STAT3 in human BXPC-3 cells at 10 microM at 42.9 degreeC incubated for 1 hrs by cellular thermal shift assay. Format: cell-based.
Chain of Signal transducer and activator of transcription 3 (P40763 whole entry): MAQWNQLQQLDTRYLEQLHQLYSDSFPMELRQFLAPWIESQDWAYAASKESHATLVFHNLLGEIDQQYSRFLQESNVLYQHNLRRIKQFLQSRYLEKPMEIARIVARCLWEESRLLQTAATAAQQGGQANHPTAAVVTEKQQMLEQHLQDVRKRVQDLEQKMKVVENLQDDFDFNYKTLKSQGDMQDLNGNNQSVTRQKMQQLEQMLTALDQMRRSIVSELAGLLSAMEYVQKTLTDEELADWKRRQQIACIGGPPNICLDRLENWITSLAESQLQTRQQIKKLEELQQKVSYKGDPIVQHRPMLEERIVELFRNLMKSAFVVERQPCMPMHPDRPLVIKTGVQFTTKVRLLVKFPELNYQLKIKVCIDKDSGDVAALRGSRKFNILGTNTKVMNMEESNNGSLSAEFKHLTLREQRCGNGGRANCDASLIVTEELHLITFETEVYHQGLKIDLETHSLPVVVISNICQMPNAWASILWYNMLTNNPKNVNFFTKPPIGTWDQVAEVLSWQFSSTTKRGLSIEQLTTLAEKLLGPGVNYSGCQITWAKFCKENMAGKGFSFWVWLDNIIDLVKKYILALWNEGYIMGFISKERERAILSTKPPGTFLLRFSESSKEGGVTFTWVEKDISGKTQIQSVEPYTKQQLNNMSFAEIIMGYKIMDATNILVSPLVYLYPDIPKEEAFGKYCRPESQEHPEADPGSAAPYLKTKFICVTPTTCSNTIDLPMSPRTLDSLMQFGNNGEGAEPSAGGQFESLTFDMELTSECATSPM
The subject of data set [3] is BXPC-3. Kind of data set: Inhibition of mitochondrial respiration in human BXPC-3 cells at 1 to 30 nM incubated for 1 hr by seahorse XF96 flux analyzer. Format: functional, cell-based. The conditions noted are these: dose 1-30 nM, DDE = dose-dependent effect.
Data set [4] concerns BXPC-3. Kind of data set: Antitumor activity against human BXPC-3 cells xenografted BALB/c mouse model assessed as reduction in Ki67 expression at 10 mg/kg,po administrated once daily for 8 weeks by immunohistochemical analysis. Format: functional, organism-based. In general terms: A xenograft is tissue or cells of one species grown in another, often human tumour cells in immunodeficient mice.

The next data set has as its system CFPAC-1. Kind of data set: Anti-proliferative activity against human CFPAC-1 cells assessed as cell growth inhibition incubated for 72 hrs by MTS assay. The conditions noted are these: CFPAC-1, 72 h. Type of data set: functional, cell-based. (In general: Tetrazolium dyes change colour on reduction, which living cells bring about.)
Data set [5] deals with Epidermal growth factor receptor (Homo sapiens, UniProt P00533). Kind of data set: Inhibition of EGFR (unknown origin).
Chain of Epidermal growth factor receptor (P00533 whole entry): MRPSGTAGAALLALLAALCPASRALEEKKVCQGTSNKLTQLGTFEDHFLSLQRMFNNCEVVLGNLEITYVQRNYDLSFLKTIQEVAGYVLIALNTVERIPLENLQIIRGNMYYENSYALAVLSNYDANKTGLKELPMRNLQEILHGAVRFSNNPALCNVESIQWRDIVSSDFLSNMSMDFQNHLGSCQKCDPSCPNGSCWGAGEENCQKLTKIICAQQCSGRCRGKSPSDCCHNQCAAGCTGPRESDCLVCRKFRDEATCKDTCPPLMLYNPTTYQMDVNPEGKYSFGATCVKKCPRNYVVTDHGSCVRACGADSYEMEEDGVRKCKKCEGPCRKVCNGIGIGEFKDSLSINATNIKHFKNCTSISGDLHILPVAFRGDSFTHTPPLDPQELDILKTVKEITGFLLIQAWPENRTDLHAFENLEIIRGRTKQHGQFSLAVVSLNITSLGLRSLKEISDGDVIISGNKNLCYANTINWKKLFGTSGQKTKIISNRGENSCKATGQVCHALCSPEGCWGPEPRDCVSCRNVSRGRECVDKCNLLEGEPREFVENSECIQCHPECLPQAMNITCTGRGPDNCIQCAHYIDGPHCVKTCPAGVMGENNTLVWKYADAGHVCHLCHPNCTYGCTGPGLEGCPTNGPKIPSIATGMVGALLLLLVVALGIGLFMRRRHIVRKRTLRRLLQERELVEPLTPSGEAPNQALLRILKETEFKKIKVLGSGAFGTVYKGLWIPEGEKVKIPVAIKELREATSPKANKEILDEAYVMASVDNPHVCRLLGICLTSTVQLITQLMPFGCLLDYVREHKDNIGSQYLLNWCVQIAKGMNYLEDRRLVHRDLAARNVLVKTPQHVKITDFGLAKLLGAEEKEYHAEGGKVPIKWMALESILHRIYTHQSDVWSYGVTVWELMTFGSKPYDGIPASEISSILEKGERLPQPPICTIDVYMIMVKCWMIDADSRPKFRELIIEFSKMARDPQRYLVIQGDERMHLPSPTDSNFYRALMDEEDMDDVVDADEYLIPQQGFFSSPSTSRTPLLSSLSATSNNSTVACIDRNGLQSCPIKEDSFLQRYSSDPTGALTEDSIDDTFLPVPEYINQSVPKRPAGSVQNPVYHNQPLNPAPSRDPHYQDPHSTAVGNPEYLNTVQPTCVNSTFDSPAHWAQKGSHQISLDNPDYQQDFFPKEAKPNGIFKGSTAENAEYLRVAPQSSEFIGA

Consider `COc1ccc(-c2noc(-c3cnc(Oc4ccc5cc(C(=O)N6CCN(Cc7ccc(OCC(F)(F)F)cc7)CC6)n(C)c5c4)cn3)n2)cc1`, for which the bioavailability – broadly, dose-corrected exposure relative to a reference, in per cent – in data set [1] is 29.1%. For the same compound, the result (in data set [2]; in the data set with BXPC-3 [4]) was Active. Besides, in the data set on BXPC-3 [3], the inhibition entry is “Dde”. Besides, the IC50 (usually the concentration that inhibits the measured activity by half) in the data set on CFPAC-1 was 6 nM; in data set [5] it was above 10000 nM.
